Bridge positions count the residues as written; N and C are the ends. Square brackets hold non-standard residues; d marks the D form. Peptide text beside a SMILES is read from it. PEG6 = NCCOCCOCCOCCOCCOCCOCCC(=O)O; R8 = C=CCCCCCC[C@@](C)(N)C(=O)O; S5 = C=CCCC[C@](C)(N)C(=O)O
What was measured:
VP16-Mediator binding = target: T1, VP16-Mediator binding (Homo sapiens, UniProt Q71SY5+Q9NVC6); assay: In vitro binding assay, VP16AD-Mediator; details: bivalent peptide 5 μM
T1 construct: endogenous in cells

SJSA cells = assay: SJSA cell death after Nutlin treatment (CellTiter-Glo); assay type: cell-based; details: 24-hour Nutlin 10 μM
Experimental: (§1) Experimental time frame for RNA-Seq experiments: In a series of experiments in SJSA cells, we initially tested whether the bivalent peptide could cause a phenotypic change. […] We next determined that a 6-hour Nutlin treatment time was the shortest that would still trigger significant SJSA cell death within 24-48 hours. However, we obtained similar results with 6-hour (or 12-hour) Nutlin treatment times (±bivalent peptide). We then tested the prospect of RNA-Seq experiments, in hopes that gene expression changes and shorter time frames would allow an assessment of bivalent peptide effects. Here, we used HCT116 cells, which show strong transcriptional response to Nutlin (Allen et al., 2014). For RNA-Seq experiments, we needed a time frame long enough to allow accumulation of p53 target gene mRNAs but short enough to enable maximum activity of the bivalent peptide (e.g. prior to its secretion, export, and/or degradation). Using RT-qPCR assays, we confirmed that a 3-hour Nutlin treatment was a minimum amount of time to reliably detect induction of p53 target genes. […] RNA-Seq data have been uploaded on GEO: GSE135870.

HCT116 cells = assay: RNA-Seq in HCT116 cells, non-p53 genes / genome-wide transcription; assay type: cell-based, human; details: DMSO control cells, no Nutlin
Excerpt: An expectation of our experimental strategy was that the bivalent peptide, which was designed based upon p53AD structure, would selectively block p53 function. […] RNA-Seq experiments in HCT116 cells represented a more rigorous test for selectivity. HCT116 cells express hundreds of sequence-specific, DNA-binding TFs, including high level expression of TFs that define the cell lineage. For HCT116 cells, these TFs include SREBF1, ELF3, JUNB, NR2F1, and MYC. To assess the general impact of the bivalent peptide on pol II transcription, we compared RNA-Seq data from DMSO control cells (i.e. no Nutlin treatment) in the presence/absence of bivalent peptide.
Electroporation of bivalent peptide into HCT116 cells (RNA-Seq experiment 1): Two 6-well plates (HCT116 cells) were grown to about 80% confluency. Cells were then trypsinized, washed with PBS, and resuspended in 150 μL Neon Buffer R. The cells were then split into two groups: No peptide and 10 μM peptide. The cells were then drawn into a 10 μL Neon pipet tip, electroporated and ejected into 2 mL of McCoy's 5A media without antibiotic. For each experiment, two cell electroporation aliquots were added to media containing either 0.1% DMSO (control) or 10 μM Nutlin-3a (in DMSO, to a final concentration of 0.1%). […]

[1] = tested on: p53-target genes in HCT116 cells; assay: RT-qPCR of p53 target genes in HCT116 cells; assay type: cell-based, human; details: HCT116, 3-hour Nutlin treatment
Experimental: as §1

CC[C@H](C)[C@H](NC(=O)[C@H](CC(=O)O)NC(=O)[C@H](CC(=O)O)NC(=O)[C@@H]1CCCN1C(=O)[C@H](CO)NC(=O)[C@H](CC(C)C)NC(=O)CCOCCOCCOCCOCCOCCOCCNC(=O)[C@H](CCCNC(=N)N)NC(=O)[C@H](CCCNC(=N)N)NC(=O)[C@]1(C)CCCC=CCCCCCC[C@@](C)(NC(=O)[C@H](Cc2ccccc2)NC(=O)[C@H](CCCNC(=N)N)NC(=O)[C@H](CCC(=O)O)NC(=O)[C@H](CCC(N)=O)NC(=O)[C@H](CO)NC(=O)[C@H](CCCNC(=N)N)NC(C)=O)C(=O)N[C@@H](CC(=O)O)C(=O)N[C@@H](CC(C)C)C(=O)N[C@@H](Cc2c[nH]c3ccccc23)C(=O)N[C@@H](CCCCN)C(=O)N[C@@H](CCCNC(=N)N)C(=O)N[C@@H](CC(C)C)C(=O)N1)C(=O)N[C@@H](CCC(=O)O)C(=O)N[C@@H](CCC(N)=O)C(=O)N[C@@H](Cc1c[nH]c2ccccc12)C(=O)N[C@@H](Cc1ccccc1)C(=O)N[C@H](C(=O)N[C@@H](CCC(=O)O)C(=O)N[C@@H](CC(=O)O)C(N)=O)[C@@H](C)O [bivalent peptide] (Ac-RSQERF[R8]DLWKRL[S5]RR[PEG6]LSPDDIEQWFTED-NH2; staple 7-14; N-terminus assumed)
effect on VP16AD binding to Mediator (VP16-Mediator binding): did not reduce VP16AD binding to Mediator | increase in Mediator-bound VP16 in +peptide experiments (GST-VP16 normalized to MED15) (VP16-Mediator binding; n=2): 1.67 fold | effect on cell death after Nutlin treatment (SJSA cells): no significant effect | effect on pol II transcription genome-wide (HCT116 cells): minor effect on pol II transcription | activation of p53-target genes by RT-qPCR [1]: blocking activation of p53-target genes

Reference: patent publication US20220064238A1, “Methods And Compositions For Modifying Transcription Factor Activity by Targeting The Human Mediator Complex Using Cell Penetrating Memetic Peptides And Methods of Treating Cancer Using The Same” (The Regents of the University of Colorado, a body corporate, priority 2020, published 2022)
